According to patent publication US12227495B2, “Herbicidal compounds” (SYNGENTA CROP PROTECTION AG, priority 2018, dated 2025):

What was measured:
Type in all cases: in vivo
[1] = system: Setaria faberi (SETFA); assay: Pre-emergence herbicide test, glasshouse, percentage damage; details: rate 1000 g/ha, evaluated after 13 days
Method in brief: (§1)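 Damage was rated 13 days after spraying on a five-point scale (1=0-20% to 5=81-100%). The compound was applied at 500 g/ha unless stated otherwise, in acetone/water 50:50 plus 0.5% Tween 20, on day 1 (pre-emergence) or day 8 (post-emergence) after sowing. Plants were kept under glasshouse conditions of 24/16° C day/night and 14 h light.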

[2] = system: Echinochloa crus-galli (ECHCG); assay: as above; details: rate 1000 g/ha, evaluated after 13 days
Method in brief: as §1

[3] = system: Lolium perenne (LOLPE); assay: as above; details: rate 1000 g/ha, evaluated after 13 days
Method in brief: as §1

[4] = system: Amaranthus retoflexus (AMARE); assay: as above; details: rate 1000 g/ha, evaluated after 13 days
Method in brief: as §1

[5] = system: Ipomoea hederacea (IPOHE); assay: as above; details: rate 1000 g/ha, evaluated after 13 days
Method in brief: as §1

[6] = system: Solanum nigrum (SOLNI); assay: as above; details: rate 1000 g/ha, evaluated after 13 days
Method in brief: as §1

[7] = system: Setaria faberi (SETFA); assay: Post-emergence herbicide test, glasshouse, percentage damage; details: 1000 g/ha, evaluated after 13 days
Method in brief: as §1

[8] = system: Echinochloa crus-galli (ECHCG); assay: as above; details: 1000 g/ha, evaluated after 13 days
Method in brief: as §1

[9] = system: Lolium perenne (LOLPE); assay: as above; details: 1000 g/ha, evaluated after 13 days
Method in brief: as §1

[10] = system: Amaranthus retoflexus (AMARE); assay: as above; details: 1000 g/ha, evaluated after 13 days
Method in brief: as §1

[11] = system: Ipomoea hederacea (IPOHE); assay: as above; details: 1000 g/ha, evaluated after 13 days
Method in brief: as §1

[12] = system: Solanum nigrum (SOLNI); assay: as above; details: 1000 g/ha, evaluated after 13 days
Method in brief: as §1

## Fc1cccc(Oc2cc(Cl)ccn2)c1-c1cc(C(F)F)no1 [Compound A60]
[1]
  Pre-emergence Test SETFA percentage damage (five point scale): 1 (1=0-20%)
[2]
  Pre-emergence Test ECHCG percentage damage (five point scale): 2 (2=21-40%)
[3]
  Pre-emergence Test LOLPE percentage damage (five point scale): 1 (1=0-20%)
[4]
  Pre-emergence Test AMARE percentage damage (five point scale): 5 (5=81-100%)
[5]
  Pre-emergence Test IPOHE percentage damage (five point scale): 1 (1=0-20%)
[6]
  Pre-emergence Test SOLNI percentage damage (five point scale): 1 (1=0-20%)
[7]
  percentage damage caused to the plant, SETFA: 2 (2=21-40%)
[8]
  percentage damage caused to the plant, ECHCG: 1 (1=0-20%)
[9]
  percentage damage caused to the plant, LOLPE: 1 (1=0-20%)
[10]
  percentage damage caused to the plant, AMARE: 4 (4=61-80%)
[11]
  percentage damage caused to the plant, IPOHE: 2 (2=21-40%)
[12]
  percentage damage caused to the plant, SOLNI: 4 (4=61-80%)

## Fc1cc(Cl)cnc1Oc1ccc(Br)c(Br)c1-n1cc(C(F)(F)F)cn1 [Compound A61]
[1]
  Pre-emergence Test SETFA percentage damage (five point scale): 2 (2=21-40%)
[2]
  Pre-emergence Test ECHCG percentage damage (five point scale): 1 (1=0-20%)
[3]
  Pre-emergence Test LOLPE percentage damage (five point scale): 1 (1=0-20%)
[4]
  Pre-emergence Test AMARE percentage damage (five point scale): 1 (1=0-20%)
[5]
  Pre-emergence Test IPOHE percentage damage (five point scale): 1 (1=0-20%)
[6]
  Pre-emergence Test SOLNI percentage damage (five point scale): 1 (1=0-20%)
[7]
  percentage damage caused to the plant, SETFA: 2 (2=21-40%)
[8]
  percentage damage caused to the plant, ECHCG: 1 (1=0-20%)
[9]
  percentage damage caused to the plant, LOLPE: 1 (1=0-20%)
[10]
  percentage damage caused to the plant, AMARE: 5 (5=81-100%)
[11]
  percentage damage caused to the plant, IPOHE: 2 (2=21-40%)
[12]
  percentage damage caused to the plant, SOLNI: 5 (5=81-100%)

## Fc1cccc(Oc2cc(OC(F)(F)F)ccn2)c1-c1cc(C(F)F)no1 [Compound A62]
[1]
  Pre-emergence Test SETFA percentage damage (five point scale): 1 (1=0-20%)
[2]
  Pre-emergence Test ECHCG percentage damage (five point scale): 1 (1=0-20%)
[3]
  Pre-emergence Test LOLPE percentage damage (five point scale): 1 (1=0-20%)
[4]
  Pre-emergence Test AMARE percentage damage (five point scale): 4 (4=61-80%)
[5]
  Pre-emergence Test IPOHE percentage damage (five point scale): 1 (1=0-20%)
[6]
  Pre-emergence Test SOLNI percentage damage (five point scale): 1 (1=0-20%)
[7]
  percentage damage caused to the plant, SETFA: 3 (3=41-60%)
[8]
  percentage damage caused to the plant, ECHCG: 3 (3=41-60%)
[9]
  percentage damage caused to the plant, LOLPE: 2 (2=21-40%)
[10]
  percentage damage caused to the plant, AMARE: 4 (4=61-80%)
[11]
  percentage damage caused to the plant, IPOHE: 3 (3=41-60%)
[12]
  percentage damage caused to the plant, SOLNI: 3 (3=41-60%)

## Fc1cc(Cl)cnc1Oc1ccccc1-c1csc(Cl)c1 [Compound A69]
[1]
  Pre-emergence Test SETFA percentage damage (five point scale): 1 (1=0-20%)
[2]
  Pre-emergence Test ECHCG percentage damage (five point scale): 1 (1=0-20%)
[3]
  Pre-emergence Test LOLPE percentage damage (five point scale): 1 (1=0-20%)
[4]
  Pre-emergence Test AMARE percentage damage (five point scale): 3 (3=41-60%)
[5]
  Pre-emergence Test IPOHE percentage damage (five point scale): 1 (1=0-20%)
[6]
  Pre-emergence Test SOLNI percentage damage (five point scale): 1 (1=0-20%)
[7]
  percentage damage caused to the plant, SETFA: 3 (3=41-60%)
[8]
  percentage damage caused to the plant, ECHCG: 4 (4=61-80%)
[9]
  percentage damage caused to the plant, LOLPE: 1 (1=0-20%)
[10]
  percentage damage caused to the plant, AMARE: 3 (3=41-60%)
[11]
  percentage damage caused to the plant, IPOHE: 2 (2=21-40%)
[12]
  percentage damage caused to the plant, SOLNI: 4 (4=61-80%)

## Fc1cc(Cl)cnc1Oc1ccccc1-c1ccsc1 [Compound A70]
[1]
  Pre-emergence Test SETFA percentage damage (five point scale): 1 (1=0-20%)
[2]
  Pre-emergence Test ECHCG percentage damage (five point scale): 1 (1=0-20%)
[3]
  Pre-emergence Test LOLPE percentage damage (five point scale): 1 (1=0-20%)
[4]
  Pre-emergence Test AMARE percentage damage (five point scale): 2 (2=21-40%)
[5]
  Pre-emergence Test IPOHE percentage damage (five point scale): 1 (1=0-20%)
[6]
  Pre-emergence Test SOLNI percentage damage (five point scale): 1 (1=0-20%)
[7]
  percentage damage caused to the plant, SETFA: 2 (2=21-40%)
[8]
  percentage damage caused to the plant, ECHCG: 3 (3=41-60%)
[9]
  percentage damage caused to the plant, LOLPE: 1 (1=0-20%)
[10]
  percentage damage caused to the plant, AMARE: 3 (3=41-60%)
[11]
  percentage damage caused to the plant, IPOHE: 1 (1=0-20%)
[12]
  percentage damage caused to the plant, SOLNI: 4 (4=61-80%)
